Experimental data published in patent US8163909B2, “Substituted hydroxyethyl amine compounds as beta-secretase modulators and methods of use” (Amgen Inc., priority 2007, dated 2012).
pIC50: −log10 of the molar value. Read-outs that look alike come from different tables or passages of the source.

Experiments:
[1] = molecular target: Beta Secretase enzyme (BACE) (Homo sapiens, UniProt P56817); test: In vitro enzymatic BACE FRET (fluorescence resonance energy transfer) assay; type: biochemical; conditions: BACE enzyme FRET assay; read-out: BACE1 FRET assay (IC50);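 further: fluorescence read after 1 h with 50 nM quenched peptide substrate spanning the BACE cleavage site, in pH 4.2 acetate buffer containing 10% DMSO and nonionic detergent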
Sequence of Beta Secretase enzyme (BACE) (P56817 46-501): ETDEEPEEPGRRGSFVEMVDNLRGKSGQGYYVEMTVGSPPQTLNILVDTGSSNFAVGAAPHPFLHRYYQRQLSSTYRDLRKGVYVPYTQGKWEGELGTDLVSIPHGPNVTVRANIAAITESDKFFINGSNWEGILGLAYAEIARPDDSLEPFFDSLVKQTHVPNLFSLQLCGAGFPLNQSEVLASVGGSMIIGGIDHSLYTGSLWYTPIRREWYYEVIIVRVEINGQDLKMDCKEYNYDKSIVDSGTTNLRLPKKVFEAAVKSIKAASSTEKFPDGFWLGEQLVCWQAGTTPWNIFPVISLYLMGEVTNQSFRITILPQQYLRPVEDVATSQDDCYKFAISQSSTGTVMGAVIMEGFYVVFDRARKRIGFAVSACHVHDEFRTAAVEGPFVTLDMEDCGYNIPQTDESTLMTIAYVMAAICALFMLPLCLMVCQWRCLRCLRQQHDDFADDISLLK

[2] = test system: Aβ40 in conditioned medium of cells stably expressing Amyloid Precursor Protein (APP); test: In vitro BACE cell-based assay (Aβ40 in conditioned medium, sandwich ELISA); conditions: cell-based assay, read-out: HEK cell assay (IC50);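 further: compounds added as a dilution series, secreted peptide quantified by europium time-resolved fluorescence readout, potency fitted from percent of control versus compound concentration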
[3] = Homo sapiens, HEK293, HEK cells

`CC(=O)NC(Cc1ccc(F)cc1)C(O)CNC1CC2(CC(C(=O)O)C2)Oc2ncc(CC(C)(C)C)cc21` [compound 263, (1s,3R,4′S)-4′-(((2R,3S)-3-(acetylamino)-4-(4-fluorophenyl)-2-hydroxybutyl)amino)-6′-(2,2-dimethylpropyl)-3′,4′-dihydrospiro[cyclobutane-1,2′-pyrano[2,3-b]pyridine]-3-carboxylic acid] showed a pIC50 [1] of 7.97 and a pIC50 [2, 3] of 6.01.

`CC(=O)N[C@@H](Cc1ccc2c(c1)OCO2)[C@H](O)CN[C@H]1CC2(CCC2)Oc2cnc(C(F)(F)F)cc21` [compound 265] was tested, and the pIC50 [1] was 5.02 and the pIC50 [2, 3] was 6.41.

`COCC(=O)N[C@@H](Cc1ccc2c(c1)OCO2)[C@H](O)CN[C@H]1CC2(CCC2)Oc2cnc(C(F)(F)F)cc21` [compound 266] showed a pIC50 [1] of 5.13 and a pIC50 [2, 3] of 5.90.

In the case of `COCC(=O)NC(Cc1ccc2c(c1)OCO2)C(O)CNC1CC2(CC(O)C2)Oc2ccc(CC(C)(C)C)cc21` [compound 267, N-((1S,2R)-1-(1,3-benzodioxol-5-ylmethyl)-3-(((2s,3′S,4S)-6-(2,2-dimethylpropyl)-3′-hydroxy-3,4-dihydrospiro[chromene-2,1′-cyclobutan]-4-yl)amino)-2-hydroxypropyl)-2-(methyloxy)acetamide], the pIC50 [1] was 7.50 and the pIC50 [2, 3] was 7.50.

`COC(C)C(=O)NC(Cc1ccc2c(c1)OCO2)C(O)CNC1CC2(CC(O)C2)Oc2ccc(CC(C)(C)C)cc21` [compound 268, (2R)—N-((1S,2R)-1-(1,3-benzodioxol-5-ylmethyl)-3-(((2s,3′S,4S)-6-(2,2-dimethylpropyl)-3′-hydroxy-3,4-dihydrospiro[chromene-2,1′-cyclobutan]-4-yl)amino)-2-hydroxypropyl)-2-(methyloxy)propanamide] gave a pIC50 [1] of 7.73 and a pIC50 ([2]; HEK cells) of 7.82.

Work on `COC(C)C(=O)NC(Cc1ccc2c(c1)OCO2)C(O)CNC1CC2(CC(O)C2)Oc2ccc(CC(C)(C)C)cc21` [compound 269, (2R)—N-((1S,2R)-1-(1,3-benzodioxol-5-ylmethyl)-3-(((2r,3′R,4S)-6-(2,2-dimethylpropyl)-3′-hydroxy-3,4-dihydrospiro[chromene-2,1′-cyclobutan]-4-yl)amino)-2-hydroxypropyl)-2-(methyloxy)propanamide] yielded a pIC50 [1] of 6.62 and a pIC50 ([2]; HEK cells) of 6.99.

`CCNc1cc(Br)cc2c1OC1(CCC1)C[C@@H]2NC[C@@H](O)[C@H](Cc1cccc(F)c1)NC(=O)COC` [compound 270] gave a pIC50 [1] of 6.35 and a pIC50 [2, 3] of 6.80.

For `COCC(=O)N[C@@H](Cc1ccc(F)cc1)[C@H](O)CN[C@H]1CC2(CCC2)Oc2ncc(CC(C)(F)F)cc21` [compound 271], the pIC50 [1] was 7.41 and the pIC50 [2, 3] was 7.00.

For `CC(=O)N[C@@H](Cc1ccccc1)[C@H](O)CN[C@H]1CC2(CCC2)Oc2ncc(CC(C)(F)F)cc21` [compound 272], the pIC50 [1] was 7.82 and the pIC50 [2, 3] was 7.83.

`COCC(=O)N[C@@H](Cc1ccccc1)[C@H](O)CN[C@H]1CC2(CCC2)Oc2ncc(CC(C)(F)F)cc21` [compound 273] was tested, and the pIC50 [1] was 7.83 and the pIC50 [2, 3] was 7.58.

Compound `CC(=O)N[C@@H](Cc1ccc(F)cc1)[C@H](O)CN[C@H]1CC2(CCC2)Oc2ncc(CC(C)(F)F)cc21` [compound 274] has a pIC50 [1] of 7.53 and a pIC50 [2, 3] of 7.14.

Work on `CC(=O)N[C@@H](Cc1ccc2c(c1)OCO2)[C@H](O)CN[C@H]1CC2(CCC2)Oc2ncc(CC(C)(F)F)cc21` [compound 275] yielded a pIC50 [1] of 7.09 and a pIC50 [2, 3] of 7.19.

Work on `COCC(=O)N[C@@H](Cc1ccc2c(c1)OCO2)[C@H](O)CN[C@H]1CC2(CCC2)Oc2ncc(CC(C)(F)F)cc21` [compound 276] yielded a pIC50 [1] of 7.12 and a pIC50 [2, 3] of 7.06.

`CC(=O)N[C@@H](Cc1cccc(F)c1)[C@H](O)CN[C@H]1CC2(CCC2)Oc2ncc(CC(C)(F)F)cc21` [compound 277] gave a pIC50 [1] of 8.21 and a pIC50 [2, 3] of 8.03.

`COCC(=O)N[C@@H](Cc1cccc(F)c1)[C@H](O)CN[C@H]1CC2(CCC2)Oc2ncc(CC(C)(F)F)cc21` [compound 278] was tested, and the pIC50 [1] was 8.17 and the pIC50 [2, 3] was 8.09.

In the case of `CO[C@H](C)C(=O)N[C@@H](Cc1ccc2c(c1)OCO2)[C@H](O)CN[C@H]1CC2(CCC2)Oc2ncc(CC(C)(F)F)cc21` [compound 279], the pIC50 [1] was 6.90 and the pIC50 [2, 3] was 6.97.

`COCC(=O)N[C@@H](Cc1cccc(F)c1)[C@H](O)CN[C@H]1CC2(CC(F)(F)C2)Oc2ncc(CC(C)(F)F)cc21` [compound 280] showed a pIC50 [1] of 7.72 and a pIC50 [2, 3] of 6.76.

With `CC(=O)N[C@@H](Cc1ccc2c(c1)OCO2)[C@H](O)CN[C@H]1CC2(CCC2)Oc2ccc(CC(C)(C)C)cc21` [compound 281] the pIC50 [1] was 7.95 and the pIC50 [2, 3] was 7.22.

For `COCC(=O)N[C@@H](Cc1ccc2c(c1)OCO2)[C@H](O)CN[C@H]1CC2(CCC2)Oc2ncc(CC(C)(C)C)cc21` [compound 282], the pIC50 [1] was 8.21 and the pIC50 [2, 3] was 7.77.

Compound `CC(C)(C)Cc1cnc2c(c1)[C@@H](NC[C@@H](O)[C@H](Cc1ccc3c(c1)OCO3)NC(=O)CF)CC1(CCC1)O2` [compound 283] has a pIC50 [1] of 8.12 and a pIC50 [2, 3] of 7.72.

`COCC(=O)N[C@@H](Cc1cccc(F)c1)[C@H](O)CN[C@H]1CC2(CCC2)Oc2ncc(CC(C)(C)F)cc21` [compound 284] showed a pIC50 [1] of 8.58 and a pIC50 [2, 3] of 8.32.

In the case of `COCC(=O)N[C@@H](Cc1ccc2c(c1)OCO2)[C@H](O)CN[C@H]1CC2(CCC2)Oc2ncc(CC(C)(C)F)cc21` [compound 285], the pIC50 [1] was 7.24 and the pIC50 [2, 3] was 7.13.

In the case of `COCC(=O)N[C@@H](Cc1cc(F)cc(F)c1)[C@H](O)CN[C@H]1CC2(CCC2)Oc2ncc(CC(C)(C)F)cc21` [compound 286], the pIC50 [1] was 8.48 and the pIC50 [2, 3] was 8.22.

With `CC(C)(C)Cc1cnc2c(c1)[C@@H](NC[C@@H](O)[C@H](Cc1ccc3c(c1)OCO3)NC(=O)C(F)(F)F)CC1(CCC1)O2` [compound 288] the pIC50 [1] was 7.27 and the pIC50 [2, 3] was 6.34.

Work on `COC(=O)N[C@@H](Cc1ccc2c(c1)OCO2)[C@H](O)CN[C@H]1CC2(CCC2)Oc2ncc(CC(C)(C)C)cc21` [compound 289] yielded a pIC50 [1] of 7.11 and a pIC50 [2, 3] of 6.71.

`COCC(=O)N[C@@H](Cc1ccc2c(c1)OCO2)[C@H](O)CN[C@H]1CC2(CCC2)Oc2ccc(CC(C)(C)C)cc21` [compound 290] was tested, and the pIC50 [1] was 7.64 and the pIC50 [2, 3] was 7.26.

For `COCC(=O)N[C@@H](Cc1ccc2c(c1)OC(F)(F)O2)[C@H](O)CN[C@H]1CC2(CCC2)Oc2ncc(CC(C)(C)C)cc21` [compound 291], the pIC50 [1] was 7.38 and the pIC50 [2, 3] was 6.42.

In the case of `CC(=O)N[C@@H](Cc1ccc2c(c1)OC(F)(F)O2)[C@H](O)CN[C@H]1CC2(CCC2)Oc2ncc(CC(C)(C)C)cc21` [compound 292], the pIC50 [1] was 7.49 and the pIC50 [2, 3] was 6.80.

Work on `COCC(=O)N[C@@H](Cc1ccc2c(c1)OC(C)(C)O2)[C@H](O)CN[C@H]1CC2(CCC2)Oc2ncc(CC(C)(C)C)cc21` [compound 293] yielded a pIC50 [1] of 6.32 and a pIC50 [2, 3] of 6.48.

`CO[C@H](C)C(=O)N[C@@H](Cc1ccc2c(c1)OC(F)(F)O2)[C@H](O)CN[C@H]1CC2(CCC2)Oc2ncc(CC(C)(C)C)cc21` [compound 295] showed a pIC50 [1] of 7.01 and a pIC50 [2, 3] of 5.87.

Work on `CO[C@@H](C)C(=O)N[C@@H](Cc1ccc2c(c1)OC(F)(F)O2)[C@H](O)CN[C@H]1CC2(CCC2)Oc2ncc(CC(C)(C)C)cc21` [compound 296] yielded a pIC50 [1] of 6.99 and a pIC50 [2, 3] of 6.24.

`COC(C)C(=O)NC(Cc1cc(F)c2c(c1)OCO2)C(O)CNC1CC2(CCC2)Oc2ncc(CC(C)(C)C)cc21` (stereo not drawn) [compound 300] gave a pIC50 [1] of 7.24 and a pIC50 [2, 3] of 6.86.

`CO[C@H](C)C(=O)N[C@@H](Cc1cccc(F)c1)[C@H](O)CN[C@H]1CC2(CCC2)Oc2ncc(CC(C)(C)F)cc21` [compound 301] showed a pIC50 [1] of 8.11 and a pIC50 [2, 3] of 8.16.

`COCC(=O)N[C@@H](Cc1cc(F)c2c(c1)OCO2)[C@H](O)CN[C@H]1CC2(CCC2)Oc2ncc(CC(C)(C)C)cc21` [compound 302] showed a pIC50 [1] of 8.24 and a pIC50 [2, 3] of 7.94.

Work on `CO[C@H](C)C(=O)N[C@@H](Cc1cc(F)c2c(c1)OCO2)[C@H](O)CN[C@H]1CC2(CCC2)Oc2ncc(CC(C)(C)C)cc21` [compound 303] yielded a pIC50 [1] of 8.05 and a pIC50 [2, 3] of 7.67.

Compound `CO[C@@H](C)C(=O)N[C@@H](Cc1cc(F)c2c(c1)OCO2)[C@H](O)CN[C@H]1CC2(CCC2)Oc2ncc(CC(C)(C)C)cc21` [compound 304] has a pIC50 [1] of 7.42 and a pIC50 [2, 3] of 7.05.

`CC(=O)N[C@@H](Cc1cc(F)c2c(c1)OCO2)[C@@H](O)CN[C@H]1CC2(CCC2)Oc2ncc(CC(C)(C)C)cc21` [compound 305, N-((1S,2S)-3-(((4′S)-6′-(2,2-dimethylpropyl)-3′,4′-dihydrospiro[cyclobutane-1,2′-pyrano[2,3-b]pyridin]-4′-yl)amino)-1-((7-fluoro-1,3-benzodioxol-5-yl)methyl)-2-hydroxypropyl)acetamide] was tested, and the pIC50 [1] was 7.42 and the pIC50 [2, 3] was 7.24.

Compound `CC(=O)N[C@@H](Cc1cc(F)c2c(c1)OCO2)[C@H](O)CN[C@H]1CC2(CCC2)Oc2ncc(CC(C)(C)C)cc21` [compound 306] has a pIC50 [1] of 8.37 and a pIC50 [2, 3] of 8.13.

`CC(=O)C(=O)N[C@@H](Cc1ccc2c(c1)OCO2)[C@H](O)CN[C@H]1CC2(CCC2)Oc2ncc(CC(C)(C)C)cc21` [compound 307] showed a pIC50 [1] of 7.50 and a pIC50 [2, 3] of 7.17.

`CC(=O)CC(=O)N[C@@H](Cc1ccc2c(c1)OCO2)[C@H](O)CN[C@H]1CC2(CCC2)Oc2ncc(CC(C)(C)C)cc21` [compound 308] was tested, and the pIC50 [1] was 7.61 and the pIC50 [2, 3] was 7.68.

Compound `CC(C)(C)Cc1cnc2c(c1)[C@@H](NC[C@@H](O)[C@H](Cc1ccc3c(c1)OCO3)NC(=O)CCl)CC1(CCC1)O2` [compound 309] has a pIC50 [1] of 7.69 and a pIC50 [2, 3] of 7.40.

With `CC(=O)N[C@@H](Cc1ccc(F)cc1)[C@H](O)CN[C@H]1CC2(CCC2)Oc2ncc(CC3(C(F)(F)F)CC3)cc21` [compound 310] the pIC50 [1] was 7.30 and the pIC50 [2, 3] was 6.78.

Work on `COCC(=O)N[C@@H](Cc1ccc(F)cc1)[C@H](O)CN[C@H]1CC2(CCC2)Oc2ncc(CC3(C(F)(F)F)CC3)cc21` [compound 311] yielded a pIC50 [1] of 7.29 and a pIC50 [2, 3] of 6.51.

`CC(=O)N[C@@H](Cc1ccc2c(c1)OCO2)[C@H](O)CN[C@H]1CC2(CCC2)Oc2ncc(CC3(C(F)(F)F)CC3)cc21` [compound 312] gave a pIC50 [1] of 7.21 and a pIC50 [2, 3] of 6.71.

With `COCC(=O)N[C@@H](Cc1ccc2c(c1)OCO2)[C@H](O)CN[C@H]1CC2(CCC2)Oc2ncc(CC3(C(F)(F)F)CC3)cc21` [compound 313] the pIC50 [1] was 6.82 and the pIC50 [2, 3] was 6.49.
